In patent US6737383B1, “Herbicidal oxadiazolidines” (priority 1999, dated 2004):

Legend:
blackgrass = assay: Test B pre/postemergence blackgrass; type: in vivo, Alopecurus myosuroides
Summary of the method: (§1)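 Response is a visual 0-to-10 score relative to untreated plants, where 0 means no effect and 10 means complete control, taken twelve to sixteen days after application. Treatments went onto soil at planting and onto foliage of 1- to 4-leaf plants, using a surfactant-containing non-phytotoxic solvent.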

giant foxtail = assay: Test B pre/postemergence giant foxtail; type: in vivo, Setaria faberii
Summary of the method: as §1

wheat = assay: Test B pre/postemergence wheat; type: in vivo, Triticum aestivum
Summary of the method: as §1

purple nutsedge = assay: Test B pre/postemergence purple nutsedge; type: in vivo, Cyperus rotundus
Summary of the method: as §1

[1] = Postemergence, Rate 62 g/ha, scale 0 to 10, 0 is no effect, 10 is complete control
[2] = Postemergence, Rate 125 g/ha, scale of 0 to 10 where 0 is no effect and 10 is complete control
[3] = Postemergence, Rate 250 g/ha, scale of 0 to 10, 0 is no effect, 10 is complete control
[4] = Preemergence, Rate 62 g/ha, scale of 0 to 10 where 0 is no effect and 10 is complete control
[5] = Preemergence, Rate 125 g/ha, scale of 0 to 10 where 0 is no effect and 10 is complete control
[6] = Preemergence, Rate 250 g/ha, scale 0 to 10 (0 no effect, 10 complete control)
[7] = Preemergence, Rate 500 g/ha, scale of 0 to 10 where 0 is no effect and 10 is complete control
[8] = Rate 500 g/ha, Postemergence, scale 0 to 10, 0 is no effect, 10 is complete control
[9] = Postemergence, Rate 250 g/ha, scale 0 to 10, 0 no effect, 10 complete control
[10] = Preemergence, Rate 62 g/ha, scale 0 to 10 (0 no effect, 10 complete control)
[11] = Preemergence, Rate 125 g/ha, scale 0 to 10 (0 no effect, 10 complete control)
[12] = Preemergence, Rate 250 g/ha, scale of 0 to 10 where 0 is no effect and 10 is complete control
[13] = Preemergence, Rate 500 g/ha, scale 0 (no effect) to 10 (complete control)
[14] = Rate 125 g/ha, Postemergence, scale 0 to 10, 0 no effect, 10 complete control
[15] = Rate 500 g/ha, Postemergence, scale 0 to 10, 0 no effect, 10 complete control
[16] = Rate 62 g/ha, Postemergence, scale 0 to 10 (0 no effect, 10 complete control)
[17] = Rate 125 g/ha, Postemergence, scale of 0 to 10 where 0 is no effect and 10 is complete control
[18] = Rate 250 g/ha, Postemergence, scale of 0 to 10 where 0 is no effect and 10 is complete control
[19] = Postemergence, Rate 500 g/ha, scale of 0 to 10 where 0 is no effect and 10 is complete control
[20] = Preemergence, Rate 31 g/ha, visual rating, scale 0 to 10 (0 no effect, 10 complete control)
[21] = Preemergence, Rate 62 g/ha, scale 0 to 10, 0 is no effect, 10 is complete control
[22] = Rate 31 g/ha, Postemergence, scale 0 to 10
[23] = Postemergence, Rate 62 g/ha, scale of 0 to 10, 0 is no effect, 10 is complete control
[24] = Postemergence, Rate 125 g/ha, scale 0 to 10, 0 is no effect, 10 is complete control
[25] = Preemergence, Rate 125 g/ha, scale 0 to 10, 0 is no effect, 10 is complete control

CC(C)N(C(=O)n1oc(=O)n(CCF)c1=O)c1ccc(Cl)cc1 [Compound 668]
Plant response rating, Blackgrass (blackgrass; [1]): 7
Blackgrass plant response rating (blackgrass; [2]): 8
Blackgrass plant response rating (blackgrass; [3]): 8
Blackgrass plant response rating (blackgrass; [4]): 6
Blackgrass plant response rating (blackgrass; [5]): 8
Plant response rating, Blackgrass (blackgrass; [6]): 10
Plant response rating, Blackgrass (blackgrass; [7]): 10
Blackgrass plant response rating (blackgrass; [8]): 9
Plant response rating, Giant foxtail (giant foxtail; [1]): 8
Giant foxtail plant response rating (giant foxtail; [2]): 9
Giant foxtail plant response rating (giant foxtail; [3]): 9
Giant foxtail plant response rating (giant foxtail; [4]): 9
Giant foxtail plant response rating (giant foxtail; [5]): 9
Plant response rating, Giant foxtail (giant foxtail; [6]): 9
Plant response rating, Giant foxtail (giant foxtail; [7]): 10
Giant foxtail plant response rating (giant foxtail; [8]): 9
Plant response rating, Wheat (wheat; [1]): 0
Wheat plant response rating (wheat; [2]): 0
Wheat plant response rating (wheat; [4]): 0
Wheat plant response rating (wheat; [5]): 0
Plant response rating, Wheat (wheat; [6]): 5
Plant response rating, Wheat (wheat; [7]): 7
Wheat plant response rating (wheat; [8]): 0
Plant response rating, Nutsedge (purple nutsedge; [1]): 0
Nutsedge plant response rating (purple nutsedge; [2]): 0
Nutsedge plant response rating (purple nutsedge; [4]): 0
Nutsedge plant response rating (purple nutsedge; [5]): 0
Plant response rating, Nutsedge (purple nutsedge; [6]): 0
Plant response rating, Nutsedge (purple nutsedge; [7]): 0
Nutsedge plant response rating (purple nutsedge; [8]): 0

CCN(Cc1ccccc1)C(=O)n1oc(=O)n(-c2c(C)cccc2C)c1=O [Compound 70]
Blackgrass plant response rating (blackgrass; [1]): 0
Blackgrass plant response rating (blackgrass; [9]): 0
Blackgrass plant response rating (blackgrass; [10]): 0
Plant response rating, Blackgrass (blackgrass; [11]): 0
Plant response rating, Blackgrass (blackgrass; [12]): 0
Blackgrass plant response rating (blackgrass; [13]): 0
Blackgrass plant response rating (blackgrass; [14]): 0
Blackgrass plant response rating (blackgrass; [15]): 0
Giant foxtail plant response rating (giant foxtail; [1]): 0
Giant foxtail plant response rating (giant foxtail; [9]): 0
Giant foxtail plant response rating (giant foxtail; [10]): 0
Plant response rating, Giant foxtail (giant foxtail; [11]): 0
Plant response rating, Giant foxtail (giant foxtail; [12]): 0
Giant foxtail plant response rating (giant foxtail; [13]): 0
Giant foxtail plant response rating (giant foxtail; [14]): 0
Giant foxtail plant response rating (giant foxtail; [15]): 0
Wheat plant response rating (wheat; [1]): 0
Wheat plant response rating (wheat; [9]): 0
Wheat plant response rating (wheat; [10]): 0
Plant response rating, Wheat (wheat; [11]): 0
Plant response rating, Wheat (wheat; [12]): 0
Wheat plant response rating (wheat; [13]): 0
Wheat plant response rating (wheat; [14]): 0
Wheat plant response rating (wheat; [15]): 0
Nutsedge plant response rating (purple nutsedge; [1]): 0
Nutsedge plant response rating (purple nutsedge; [9]): 0
Nutsedge plant response rating (purple nutsedge; [10]): 0
Plant response rating, Nutsedge (purple nutsedge; [11]): 0
Plant response rating, Nutsedge (purple nutsedge; [12]): 0
Nutsedge plant response rating (purple nutsedge; [13]): 0
Nutsedge plant response rating (purple nutsedge; [14]): 0
Nutsedge plant response rating (purple nutsedge; [15]): 0

CCN(C(=O)n1oc(=O)n(Cc2ccco2)c1=O)C1CCCCC1 [Compound 312]
Blackgrass plant response rating (blackgrass; [4]): 0
Blackgrass plant response rating (0 to 10 scale) (blackgrass; Preemergence, Rate 125 g/ha): 0
Blackgrass plant response rating (blackgrass; [12]): 0
Blackgrass plant response rating (blackgrass; [7]): 0
Blackgrass plant response rating (blackgrass; [16]): 0
Blackgrass plant response rating (blackgrass; [17]): 0
Plant response rating, Blackgrass (blackgrass; [18]): 0
Blackgrass plant response rating (blackgrass; [15]): 0
Giant foxtail plant response rating (giant foxtail; [4]): 0
Giant foxtail plant response rating (0 to 10 scale) (giant foxtail; Preemergence, Rate 125 g/ha): 0
Giant foxtail plant response rating (giant foxtail; [12]): 0
Giant foxtail plant response rating (giant foxtail; [7]): 0
Giant foxtail plant response rating (giant foxtail; [16]): 0
Giant foxtail plant response rating (giant foxtail; [17]): 0
Plant response rating, Giant foxtail (giant foxtail; [18]): 0
Wheat plant response rating (wheat; [4]): 0
Wheat plant response rating (0 to 10 scale) (wheat; Preemergence, Rate 125 g/ha): 0
Wheat plant response rating (wheat; [12]): 0
Wheat plant response rating (wheat; [7]): 0
Wheat plant response rating (wheat; [16]): 0
Wheat plant response rating (wheat; [17]): 0
Plant response rating, Wheat (wheat; [18]): 0
Nutsedge plant response rating (purple nutsedge; [4]): 0
Nutsedge plant response rating (0 to 10 scale) (purple nutsedge; Preemergence, Rate 125 g/ha): 0
Nutsedge plant response rating (purple nutsedge; [12]): 0
Nutsedge plant response rating (purple nutsedge; [7]): 0
Nutsedge plant response rating (purple nutsedge; [16]): 0
Nutsedge plant response rating (purple nutsedge; [17]): 0
Plant response rating, Nutsedge (purple nutsedge; [18]): 0

COCCn1c(=O)on(C(=O)N(c2ccccc2)C(C)C)c1=O [Compound 631]
Plant response rating, Blackgrass (blackgrass; [1]): 1
Plant response rating, Blackgrass (blackgrass; [2]): 8
Blackgrass plant response rating (blackgrass; [3]): 6
Plant response rating, Blackgrass (blackgrass; [19]): 9
Blackgrass plant response rating (blackgrass; [10]): 6
Blackgrass plant response rating (blackgrass; [5]): 7
Plant response rating, Blackgrass (blackgrass; [6]): 9
Plant response rating, Blackgrass (blackgrass; [7]): 10
Plant response rating, Giant foxtail (giant foxtail; [1]): 8
Plant response rating, Giant foxtail (giant foxtail; [2]): 9
Giant foxtail plant response rating (giant foxtail; [3]): 9
Plant response rating, Giant foxtail (giant foxtail; [19]): 9
Giant foxtail plant response rating (giant foxtail; [10]): 9
Giant foxtail plant response rating (giant foxtail; [5]): 9
Plant response rating, Giant foxtail (giant foxtail; [6]): 10
Plant response rating, Giant foxtail (giant foxtail; [7]): 10
Plant response rating, Wheat (wheat; [1]): 0
Plant response rating, Wheat (wheat; [2]): 2
Wheat plant response rating (wheat; [3]): 6
Wheat plant response rating (wheat; [10]): 0
Wheat plant response rating (wheat; [5]): 3
Plant response rating, Wheat (wheat; [6]): 8
Plant response rating, Wheat (wheat; [7]): 9
Plant response rating, Nutsedge (purple nutsedge; [1]): 0
Plant response rating, Nutsedge (purple nutsedge; [2]): 0
Nutsedge plant response rating (purple nutsedge; [3]): 0
Nutsedge plant response rating (purple nutsedge; [10]): 0
Nutsedge plant response rating (purple nutsedge; [5]): 4
Plant response rating, Nutsedge (purple nutsedge; [6]): 4
Plant response rating, Nutsedge (purple nutsedge; [7]): 8

CCN(C(=O)n1oc(=O)n(-c2ccccc2OC)c1=O)C1CCCCC1 [Compound 29]
Blackgrass plant response rating (blackgrass; [1]): 0
Blackgrass plant response rating (blackgrass; [9]): 0
Blackgrass plant response rating (blackgrass; [20]): 0
Plant response rating, Blackgrass (blackgrass; [21]): 0
Plant response rating, Blackgrass (blackgrass; [11]): 0
Plant response rating, Blackgrass (blackgrass; [12]): 2
Blackgrass plant response rating (blackgrass; [22]): 0
Blackgrass plant response rating (blackgrass; [14]): 0
Giant foxtail plant response rating (giant foxtail; [1]): 0
Giant foxtail plant response rating (giant foxtail; [9]): 0
Giant foxtail plant response rating (giant foxtail; [20]): 0
Plant response rating, Giant foxtail (giant foxtail; [21]): 0
Plant response rating, Giant foxtail (giant foxtail; [11]): 1
Plant response rating, Giant foxtail (giant foxtail; [12]): 3
Giant foxtail plant response rating (giant foxtail; [22]): 0
Giant foxtail plant response rating (giant foxtail; [14]): 0
Wheat plant response rating (wheat; [1]): 0
Wheat plant response rating (wheat; [9]): 0
Wheat plant response rating (wheat; [20]): 0
Plant response rating, Wheat (wheat; [21]): 0
Plant response rating, Wheat (wheat; [11]): 0
Plant response rating, Wheat (wheat; [12]): 0
Wheat plant response rating (wheat; [14]): 0
Nutsedge plant response rating (purple nutsedge; [1]): 0
Nutsedge plant response rating (purple nutsedge; [9]): 0
Nutsedge plant response rating (purple nutsedge; [20]): 0
Plant response rating, Nutsedge (purple nutsedge; [21]): 0
Plant response rating, Nutsedge (purple nutsedge; [11]): 0
Plant response rating, Nutsedge (purple nutsedge; [12]): 0
Nutsedge plant response rating (purple nutsedge; [22]): 0
Nutsedge plant response rating (purple nutsedge; [14]): 0

CC(C)N(C(=O)n1oc(=O)n(CCC2OCCO2)c1=O)c1ccccc1 [Compound 560]
Blackgrass plant response rating (blackgrass; [23]): 2
Blackgrass plant response rating (blackgrass; [24]): 5
Plant response rating, Blackgrass (blackgrass; [19]): 7
Blackgrass plant response rating (blackgrass; [10]): 4
Blackgrass plant response rating (blackgrass; [25]): 6
Blackgrass plant response rating (0 to 10 scale) (blackgrass; Preemergence, Rate 250 g/ha): 9
Blackgrass plant response rating (blackgrass; [7]): 9
Plant response rating, Blackgrass (blackgrass; [18]): 7
Giant foxtail plant response rating (giant foxtail; [23]): 2
Giant foxtail plant response rating (giant foxtail; [24]): 7
Plant response rating, Giant foxtail (giant foxtail; [19]): 8
Giant foxtail plant response rating (giant foxtail; [10]): 10
Giant foxtail plant response rating (giant foxtail; [25]): 10
Giant foxtail plant response rating (0 to 10 scale) (giant foxtail; Preemergence, Rate 250 g/ha): 10
Giant foxtail plant response rating (giant foxtail; [7]): 10
Plant response rating, Giant foxtail (giant foxtail; [18]): 7
Wheat plant response rating (wheat; [23]): 0
Plant response rating, Wheat (wheat; [19]): 6
Wheat plant response rating (wheat; [10]): 3
Wheat plant response rating (wheat; [25]): 5
Wheat plant response rating (0 to 10 scale) (wheat; Preemergence, Rate 250 g/ha): 6
Wheat plant response rating (wheat; [7]): 8
Plant response rating, Wheat (wheat; [18]): 3
Nutsedge plant response rating (purple nutsedge; [23]): 3
Nutsedge plant response rating (purple nutsedge; [24]): 3
Plant response rating, Nutsedge (purple nutsedge; [19]): 5
Nutsedge plant response rating (purple nutsedge; [10]): 0
Nutsedge plant response rating (purple nutsedge; [25]): 3
Nutsedge plant response rating (0 to 10 scale) (purple nutsedge; Preemergence, Rate 250 g/ha): 7
Nutsedge plant response rating (purple nutsedge; [7]): 10
Plant response rating, Nutsedge (purple nutsedge; [18]): 3
